Results taken from patent publication US20260053747A1, “RECONSTITUTED HIGH-DENSITY LIPOPROTEIN NANOPARTICLES COMPRISING CHOLESTEROL” (MEPSGEN CO., LTD., priority 2023, published 2026).

Key:
hBMECs = assay: Toxicity (cell survival rate) in hBMECs; format: cell-based, human; conditions: up to 5 μg/mL, 8 hours
Procedure: (§1) The toxicity of 24HC-containing rHDL nanoparticles toward hBMECs, iBMECs, pericytes, and normal brain astrocytes, which constitute the BBB until the nanoparticles penetrate the BBB and reach the GBM, was evaluated. hBMECs, iBMECs, pericytes, and astrocytes were seeded into a 96-well cell culture plate. Pericytes were cultured in PM medium, astrocytes were cultured in the same culture medium as described in Example 1, and hBMEC and iBMEC cells were cultured in the same culture medium as described in Example 6. After 24 hours of incubation, the cells were treated with the nanoparticles according to the present invention at concentrations ranging from Oto 5 μg/mL, and the cell survival rate (%) was evaluated after 8 hours of incubation. […] In addition, it was confirmed that the nanoparticles are not toxic to normal brain cells other than GBM.

iBMECs = assay: Toxicity (cell survival rate) in iBMECs; format: cell-based, human; conditions: up to 5 μg/mL, 8 hours
Procedure: as §1

pericytes = assay: Toxicity (cell survival rate) in pericytes; format: cell-based; conditions: up to 5 μg/mL, 8 hours
Procedure: as §1

normal brain astrocytes = assay: Toxicity (cell survival rate) in astrocytes; format: cell-based; conditions: up to 5 μg/mL, 8 hours
Procedure: as §1

[1] = system: LDLR mRNA expression in U87MG cells; assay: qPCR of LDLR mRNA in U87MG; format: cell-based; conditions: 1 μg/mL of 24HC, 24 hours
Source text: (§2) 24HC is an endogenous LXR agonist and is known to induce the expression of genes responsible for cholesterol efflux, such as ABCA1 and ABCG1, thereby inducing intracellular cholesterol efflux, and to inhibit exogenous cholesterol uptake by downregulating LDLR. Accordingly, we anticipated that treatment of GBM with 24HC-containing rHDL nanoparticles would result in a greater decrease in LDLR expression and an increase in ABCA1 expression due to the action of 24HC, compared to the treatment with 24HC alone. Therefore, U87MG and LN229 cells were treated with 24HC, 24HC-containing rHDL nanoparticles, and rHDL nanoparticles, and the changes in LDLR and ABCA1 mRNA expression were confirmed using qPCR (real-time polymerase chain reaction). U87MG and LN229 cells were seeded at 0.5×10^5 cells/well in a 6-well cell culture plate and cultured for 24 hours under the conditions described in Example 1 above. In qPCR experiments, U87MG cells were treated with 1 μg/mL of 24HC for 24 hours, and LN229 cells were treated with 5 μg/mL of 24HC for 24 hours, and changes in LDLR mRNA were confirmed. […] In the case of rHDL nanoparticles, the amount of apolipoprotein E3 in the 24HC-containing rHDL nanoparticles was quantified using a BCA assay, and the same amount of apolipoprotein E3 corresponding to the 24HC treatment concentration was calculated prior to treatment with rHDL nanoparticles.

[2] = system: LDLR mRNA expression in LN229 cells; assay: qPCR of LDLR mRNA in LN229; format: cell-based; conditions: LN229, 5 μg/mL of 24HC, 24 hours
Source text: as §2

[3] = system: ABCA1 mRNA expression in U87MG cells; assay: qPCR of ABCA1 mRNA in U87MG; format: cell-based; conditions: 1 μg/mL of 24HC, 4 hours
Source text: as §2

[4] = system: ABCA1 mRNA expression in LN229 cells; assay: qPCR of ABCA1 mRNA in LN229; format: cell-based; conditions: LN229, 5 μg/mL of 24HC, 4 hours
Source text: as §2

U87MG cells = assay: GBM cell survival rate in U87MG; format: cell-based; conditions: Homo sapiens, U-87 MG, 0-50 μg/mL, 48 hours
Procedure: (§3) In order to determine whether cholesterol depletion caused by intracellular cholesterol efflux inhibits GBM cell proliferation and induces cell death, U87MG and LN229 cells were treated with rHDL nanoparticles, 24HC, and 24HC-containing rHDL nanoparticles, and the cell survival rate was evaluated. After 24 hours of incubation, the cells were treated with the nanoparticles according to the present invention at concentrations of 0-50 μg/mL, and the cell survival rate (%) was evaluated after 48 hours of incubation.

LN229 cells = assay: GBM cell survival rate in LN229; format: cell-based; conditions: Homo sapiens, LN-229, 0-50 μg/mL, 48 hours
Procedure: as §3

[5] = system: LDLR mRNA expression in GBM #P1 and GBM #P2 cells; assay: qPCR of LDLR mRNA in patient-derived GBM cells; format: cell-based; conditions: GBM #P1 and GBM #P2, 2 μg/mL of 24HC, 4 hours
Procedure: GBM #P1 and GBM #P2 cells were treated with 24HC, 24HC-containing rHDL nanoparticles, and rHDL nanoparticles, and the changes in LDLR and ABCA1 mRNA expression were confirmed using qPCR. GBM #P1 and GBM #P2 cells were seeded at 0.5×10^5 cells/well in a 6-well cell culture plate and were cultured for 24 hours. The cells were cultured under the conditions as described in Example 12 above. GBM #P1 and GBM #P2 cells were treated with 24HC and 24HC-containing rHDL nanoparticles at a concentration of 2 μg/mL of 24HC for 4 hours. In the case of rHDL nanoparticles, the amount of apolipoprotein E3 in the 24HC-containing rHDL nanoparticles was quantified using a BCA assay, and then the same amount of apolipoprotein E3 corresponding to the 24HC treatment concentration was calculated prior to treatment with rHDL nanoparticles.

GBM #P1 cells = assay: Cell viability in patient-derived GBM #P1; format: cell-based; conditions: 0-50 μg/mL, 48 hours
Procedure: (§4) In order to determine whether cholesterol depletion due to intracellular cholesterol efflux inhibits GBM cell proliferation and induces cell death, GBM #P1 and GBM #P2 cells were treated with rHDL nanoparticles, 24HC, and 24HC-containing rHDL nanoparticles, and cell viability was evaluated. After 24 hours of incubation, the cells were treated with 0-50 μg/mL of the nanoparticles, and the cell viability (%) was assessed after 48 hours of incubation.

GBM #P2 cells = assay: Cell viability in patient-derived GBM #P2; format: cell-based; conditions: 0-50 μg/mL, 48 hours
Procedure: as §4

[6] = system: ABCA1 protein in PDAC cells; conditions: PDAC cells (Raimund O, Life Sci Alliance, 2022); cited from earlier work

Compound	Toxicity in hBMECs (hBMECs)	Toxicity in iBMECs (iBMECs)	Toxicity in pericytes (pericytes)	Toxicity in astrocytes (normal brain astrocytes)	Level of LDLR mRNA expression compared to the control group [1]	Level of LDLR mRNA expression compared to the control group [2]	Level of ABCA1 mRNA expression compared to the control group [3]	Level of ABCA1 mRNA expression compared to the control group [4]	IC50 (U87MG cells)	IC50 (LN229 cells)	Level of LDLR mRNA expression, lower compared to the control group [5]	IC50 (GBM #P1 cells)	IC50 (GBM #P2 cells)	Expression of the ABCA1 protein [6]
CC(C)C(O)CC[C@@H](C)[C@H]1CC[C@H]2[C@@H]3CC=C4C[C@@H](O)CC[C@]4(C)[C@H]3CC[C@]12C (some centres unmarked) [Formulation 24HC, 24-hydroxycholesterol]	none of the rHDL nanoparticles, 24HC, or 24HC-containing rHDL nanoparticles exhibited toxicity	none of the rHDL nanoparticles, 24HC, or 24HC-containing rHDL nanoparticles exhibited toxicity	none of the rHDL nanoparticles, 24HC, or 24HC-containing rHDL nanoparticles exhibited toxicity	none of the rHDL nanoparticles, 24HC, or 24HC-containing rHDL nanoparticles exhibited toxicity	decreased	decreased	increased	increased	6.7 µg/mL	12.8 µg/mL	significantly reduced	40.2 µg/mL	13.8 µg/mL	
O=S(=O)(c1ccccc1)N(CC(F)(F)F)c1ccc(C(O)(C(F)(F)F)C(F)(F)F)cc1 [Formulation T0901317]														increased the expression of the ABCA1 protein
